Measured values from patent US7446092B2, “Glycogen synthase kinase-3 inhibitors” (Tel Aviv University Future Technology Development L.P., priority 2002, dated 2008).
One block for each compound: values may come before it. Square brackets hold non-standard residues; d marks the D form. Ends that are not written are not given here. Peptide text beside a SMILES is read from it. * marks the point of attachment. pY = N[C@@H](Cc1ccc(OP(=O)(O)O)cc1)C(=O)O; Myristoyl = CCCCCCCCCCCCCC(=O)*; pS = N[C@@H](COP(=O)(O)O)C(=O)O

How the values were obtained:
[1] = biological target: GSK-3β (Oryctolagus cuniculus, UniProt A0A5F9DUX8); assay: In vitro GSK-3 inhibition assay (phosphorylation of PGS-1 peptide substrate); assay type: biochemical, rabbit; conditions: for GSK-3 inhibition (in words): in vitro, cpL803-mts tested at 0-300 μM; for Inhibitor functionality: GSK-3 inhibitor
Sequence of GSK-3β (A0A5F9DUX8 1-420): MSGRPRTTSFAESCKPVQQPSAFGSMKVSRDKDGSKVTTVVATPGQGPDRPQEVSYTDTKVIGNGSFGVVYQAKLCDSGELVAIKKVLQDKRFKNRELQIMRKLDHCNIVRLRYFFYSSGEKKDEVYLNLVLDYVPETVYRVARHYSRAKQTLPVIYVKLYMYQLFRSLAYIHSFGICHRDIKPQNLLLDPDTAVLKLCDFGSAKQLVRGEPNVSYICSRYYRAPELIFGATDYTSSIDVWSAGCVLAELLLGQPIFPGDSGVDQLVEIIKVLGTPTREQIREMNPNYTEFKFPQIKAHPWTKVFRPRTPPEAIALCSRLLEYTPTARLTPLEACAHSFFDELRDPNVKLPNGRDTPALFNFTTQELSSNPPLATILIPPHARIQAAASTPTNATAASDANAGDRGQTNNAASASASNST
Method: In vitro inhibition assays: Purified recombinant rabbit GSK-3β (Eldar-Finkelman et al., 1996) was incubated with peptide substrate PGS-1 ([…](p)EDEEE) (SEQ ID NO:15) and with a peptide inhibitor at indicated concentrations. The reaction mixture included Tris 50 mM (pH=7.3), 10 mM MgAc, ^32P[γ-ATP] (100 μM), 0.01% β-mercaptoethanol, and was incubated for 10 minutes at 30° C. Reactions were spotted on phosphocellulose paper (p81), washed with 100 mM phosphoric acid, and counted for radioactivity (as described in Eldar-Finkelman et al., 1996).

[2] = Glucose tolerance test in fasted C57Bl/6J mice; assay type: in vivo; conditions: vs control peptide
Method: Glucose tolerance tests: Glucose tolerance tests were performed in overnight fasted C57Bl/6J mice (12 hours). L803-mts or LE803-mts were administrated intraperitoneally (i.p.) to mice (400 nmol peptide), glucose (1 gram/kg) was injected i.p. one hour thereafter and blood samples were collected from tail vein at various time points. Blood glucose levels were immediately measured by Sugar Accutrend Sensor,(Roche, Germany)).

[3] = system: β-catenin; assay: β-catenin levels in mouse hippocampus extracts (Western blot); assay type: in vivo
Method: (§1) Forced Swimming Test (FST): C57BL/6J mice were housed in individual cages with free access to water in a temperature-controlled facility with a 12 hours light/dark cycle. Animals at age 14-16 weeks were used, and each experimental group consisted of randomly chosen 10-20 mice. At day one, mice were subjected to pre-FST (see below). At day two, mice were anesthetized with halothane (inhalation) and were unilaterally intracerebroventricularly injected (i.c.v., 1 μl of 25 mM stock solution) with L803-mts or a scrambled control peptide (cpL803-mts). Animals were subjected to FST once 1, 3, and 12 hours after reagents were administrated. The FST procedure used was similar to that initially described by Porsolt et al. (1977). Briefly, animals were placed at day one in a large cylinder (30 cm×45 cm) of 25° C. water for a 15-minutes period. At day two (24 hours later), treated mice were placed in the cylinder of water for a 6-minutes period. The duration of immobility was monitored during the last 4 minutes of the 6-minute test. Immobility period was defined as the time spent by the animal floating in the water without struggling and making only those movements necessary to keep its head above the water. All testing took place between 11:00 and 15:00. After completion the FST, mice were scarified, and hippocampuses were removed, frozen in liquid nitrogen, and stored at −80° C. Animal care followed the institutional animal care and used committee.
Hippocampus extracts: Hippocampus tissue was homogenized with ice cold buffer H (50 mM β-glycerophosphate pH=7.3, 10% glycerol, 1 mM EGTA, 1 mM EDTA, 10 mM NaF, 5 mM NaPPi, 25 μg/ml leupeptin, 25 μg/ml aprotinin, 500 nM microcystine LR and 1% Triton X100). […] Equal amounts of proteins (30 μg) as determined by Bradford analysis (Bradford, […]) were boiled with Laemmli sample buffer and subjected to gel electrophoresis (10% polyacrylamide gel), transferred to nitrocellulose membranes, and immunoblotted with specific monoclonal antibodies for β-catenin (Transduction laboratories, USA).

[4] = system: glycogen synthase; assay: Glycogen synthase activity in HEK 293 cells; assay type: cell-based
Description: Glycogen synthase activity in HEK 293 cells: To test the impact of the conjugates of the present invention in intact cells, the membrane preamble L803 inhibitor L803-mts (N-Myristol-GKEAPPAPPQS(p)P) (SEQ ID NO:16) and two similarly modified respective controls LE803-mts (N-Myristol-GKEAPPAPPQSEP) (SEQ ID NO:17) and LS803-mts (N-Myristol-GKEAPPAPPQSP) (SEQ ID NO:18), in which the phosphorylated serine was replaced with glutamic acid (that usually mimics a phosphorylated group) or a serine residue, respectively, were designed and synthesized.
HEK 293 cells were grown in 10 cm plates with Dulbecco's modified Eagle medium (DMEM) supplemented with 10% fetal calf serum (FCS). On the day of the experiment, cells were incubated with low glucose medium supplemented with 0.5% FCS for 1 hour, followed by the addition of the conjugate L803-mts or its respective controls LE803-mts and LS803-mts at various concentrations, for additional 2.5 hours. A vehicle control of DMSO (0.1% DMSO) was also tested. […] The reactions were then spotted on ET31 (Whatman) papers, washed with 66% ice-cold ethanol, and counted for radioactivity. Glycogen synthase assays were measured in the presence of 0.1 mM glucose-6-phosphate (G6P). […]

[5] = system: mouse adipocytes; assay: Glucose uptake in isolated adipocytes; assay type: cell-based
Method: Glucose uptake in isolated adipocytes: Mice adipocytes were isolated from epididymal fat pad by digestion with 0.8 mg/ml collagenase (Worthington Biochemical) as described previously (Lawrence et al., 1977). Digested fat pads were passed through nylon mesh and cells were washed 3 times with Krebs-bicarbonate buffer (pH=7.4) containing 1% bovine serum albumin (Fraction V, Boehringer Mannheim, Germany), 10 mM HEPES (pH=7.3), 5 mM glucose and 200 nM adenosine. Cells were incubated with L803-mts or LE803-mts at indicated concentrations for 1 hour, followed by addition of 2-deoxy [^3H] glucose (0.5 μci/vial) for 10 minutes. The assay was terminated by centrifugation of cells through dinonylphthalate (ICN, USA). ^3H was thereafter quantitated by liquid scintillation analyzer (Packard). Nonspecific uptake of 2-deoxy-[^3H] glucose was determined by the addition of cytochalasin B (50 μM) 30 minutes prior to the addition of radioactive material.
In another set of experiments, adipocytes were treated with various concentrations of L803-mts 1 hour before addition of sub-optimal concentration of insulin (5 nM). Glucose uptake was determined as described above.

[6] = Forced swimming test (FST); assay type: in vivo, C57BL/6J mice; conditions: vs control-treated animals
Method: as §1

[7] = biological target: T1, GSK-3 (Oryctolagus cuniculus, UniProt G1T8E2); assay: In vitro test of peptides as GSK-3 substrates; assay type: biochemical, rabbit; conditions: S2(p) of p9CREB replaced
T1 construct: made in house
T1 sequence (G1T8E2 1-432): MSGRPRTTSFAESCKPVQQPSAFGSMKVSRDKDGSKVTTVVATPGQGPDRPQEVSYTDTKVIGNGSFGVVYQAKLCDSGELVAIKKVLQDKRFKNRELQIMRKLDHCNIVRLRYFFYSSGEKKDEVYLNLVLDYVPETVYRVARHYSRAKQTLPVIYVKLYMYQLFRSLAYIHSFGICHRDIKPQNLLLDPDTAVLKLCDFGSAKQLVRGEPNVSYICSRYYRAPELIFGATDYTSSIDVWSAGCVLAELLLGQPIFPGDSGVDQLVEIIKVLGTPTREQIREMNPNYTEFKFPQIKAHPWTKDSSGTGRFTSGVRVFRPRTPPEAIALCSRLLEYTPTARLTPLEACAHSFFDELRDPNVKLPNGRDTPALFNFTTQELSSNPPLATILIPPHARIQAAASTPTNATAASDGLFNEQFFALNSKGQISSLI

[8] = biological target: T2, Cdc2 (Homo sapiens, UniProt P06493); assay: Effect of L803 on Cdc2 activity (histone H1 substrate); assay type: biochemical; conditions: L803 200 μM
T2 construct: purchased New England BioLabs (Beverly, Mass.)
T2 sequence (P06493 whole entry): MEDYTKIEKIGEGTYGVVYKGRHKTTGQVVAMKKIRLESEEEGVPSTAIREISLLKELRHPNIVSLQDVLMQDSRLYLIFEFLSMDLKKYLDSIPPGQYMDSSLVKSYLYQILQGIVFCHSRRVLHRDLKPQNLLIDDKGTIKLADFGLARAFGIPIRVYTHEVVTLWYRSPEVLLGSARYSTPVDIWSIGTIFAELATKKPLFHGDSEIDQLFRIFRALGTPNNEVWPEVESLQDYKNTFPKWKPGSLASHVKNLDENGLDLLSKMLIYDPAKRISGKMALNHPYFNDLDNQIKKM
T2 sequence (P14635 whole entry partner): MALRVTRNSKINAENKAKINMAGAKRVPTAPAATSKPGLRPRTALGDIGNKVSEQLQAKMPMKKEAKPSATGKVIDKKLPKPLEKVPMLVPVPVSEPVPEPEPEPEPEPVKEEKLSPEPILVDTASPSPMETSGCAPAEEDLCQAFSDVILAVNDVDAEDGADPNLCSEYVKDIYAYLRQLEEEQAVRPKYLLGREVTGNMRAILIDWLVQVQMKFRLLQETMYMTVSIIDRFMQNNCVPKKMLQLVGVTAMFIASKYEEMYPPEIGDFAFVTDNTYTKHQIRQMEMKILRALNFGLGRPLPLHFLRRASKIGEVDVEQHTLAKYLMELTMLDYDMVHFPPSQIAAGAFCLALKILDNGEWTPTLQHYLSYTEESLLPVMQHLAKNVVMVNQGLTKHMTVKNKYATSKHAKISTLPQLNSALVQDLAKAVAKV
Method: The effect of L803 (200 μM) on other protein kinases was tested by incubating Cdc2 (1 unit) with a reaction mixture similar to that described hereinabove and containing histone H1 substrate (5 μg). The reactions were boiled with SDS sample buffer, separated on gel electrophoresis and autoradiographed.

GSK-3 inhibition (in words) [1]: do not inhibit
Compound: N-Myristol-GKEAPPAPPQSP (Myristoyl-GKEAPPAPPQSP) [LS803-mts, control conjugate, phosphorylated serine replaced with serine, reference compound]

GSK-3 inhibition (in words) [1]: do not inhibit
Compound: N-Myristol-GKEAPPAPPQSEP (Myristoyl-GKEAPPAPPQSEP) [LE803-mts, control conjugate, phosphorylated serine replaced with glutamic acid, reference compound]

Compound: CCCCCCCCCCCCCC(=O)NCC(=O)N[C@@H](CCCCN)C(=O)N[C@@H](CCC(=O)O)C(=O)N[C@@H](C)C(=O)N1CCC[C@H]1C(=O)N1CCC[C@H]1C(=O)N[C@@H](C)C(=O)N1CCC[C@H]1C(=O)N1CCC[C@H]1C(=O)N[C@@H](CCC(N)=O)C(=O)N[C@@H](COP(=O)(O)O)C(=O)N1CCC[C@H]1C(=O)O [Peptide L803-mts, N-Myristol-GKEAPPAPPQS(p)P] (Myristoyl-GKEAPPAPPQ[pS]P-OH; C-terminus assumed)
Reduction in the blood glucose peak and in glucose levels 1 and 2 hours after glucose ([2]; 400 nmol i.p. one hour before glucose 1 gram/kg): 20%
Glucose tolerance (in words) ([2]; 400 nmol i.p.): better glucose tolerance
Increase in β-catenin levels ([3]; 1 hour after i.c.v. L803-mts): 20%
Increase in β-catenin levels ([3]; 3 hours after i.c.v. L803-mts): 30%
Increase in β-catenin levels ([3]; 12 hours post administration): 50%
Concentrations inhibiting endogenous GSK-3 [4]: 10 to 40 µM
Increase of glycogen synthase activity ([4]; 2.5 hours, compared with cells treated with LE803-mts or LS803-mts): 2.5 fold
Effect on insulin-induced glucose uptake (in words) ([5]; L803-mts 1-10 μM followed by sub-optimal insulin (5 nM)): additive effect
Increase of 2-deoxyglucose incorporation ([5]; mouse adipocytes, no insulin, compared with cells treated with LE803-mts or LS803-mts): approximately 2.5 fold
Shortening of immobility time ([6]; FST 1 hour after i.c.v. injection): 37%±3.7%
Shortening of immobility time ([6]; FST 3 hours after i.c.v. injection): 44%±5.7%
Shortening of immobility time ([6]; FST 12 hours after i.c.v. injection): 16%±0.6%

GSK-3 inhibition (in words) [1]: inactive inhibitors
Compound: KEEPPAPPQEP [Peptide 11]

Compound: ILSRPPY(p)YR (ILSRPP[pY]YR; also: phosphotyrosine, Y7 or Y8 (written PPY(p)YR)) [Peptide 4]
Phosphorylation by GSK-3 (in words) [7]: eliminated the capacity of GSK-3 to phosphorylate these peptides

Compound: insulin [reference compound]
Maximum stimulation of glucose uptake by insulin ([5]; mouse adipocytes, insulin 10 nM, data not shown): 3 fold

GSK-3 inhibition (in words) [1]: eliminated the inhibitory capacity
Compound: CC[C@H](C)[C@H](N)C(=O)N[C@@H](CC(C)C)C(=O)N[C@@H](C)C(=O)N[C@@H](CCCNC(=N)N)C(=O)N[C@@H](CCCNC(=N)N)C(=O)N1CCC[C@H]1C(=O)N[C@@H](COP(=O)(O)O)C(=O)N[C@@H](Cc1ccc(O)cc1)C(=O)N[C@@H](CCCNC(=N)N)C(=O)O [Peptide 6, ILARRPS(p)YR] (H-ILARRP[pS]YR-OH)
Inhibitor functionality [1]: * (weak inhibition activity (IC50 > 800 μM))

Compound: C[C@H](NC(=O)[C@H](CCC(=O)O)NC(=O)[C@@H](N)CCCCN)C(=O)N1CCC[C@H]1C(=O)N1CCC[C@H]1C(=O)N[C@@H](C)C(=O)N1CCC[C@H]1C(=O)N1CCC[C@H]1C(=O)N[C@@H](CCC(N)=O)C(=O)N[C@@H](COP(=O)(O)O)C(=O)N1CCC[C@H]1C(=O)O [Peptide 9, KEAPPAPPQS(p)P] (H-KEAPPAPPQ[pS]P-OH; N-terminus and C-terminus assumed)
Inhibition of cdc2 (in words) [8]: not inhibited

GSK-3 inhibition (in words) [1]: inactive inhibitors
Compound: KEEPPAPPQSP [Peptide 10]

Compound: ILSRPPEYR [Peptide 3]
Phosphorylation by GSK-3 (in words) [7]: eliminated the capacity of GSK-3 to phosphorylate these peptides

Compound: C[C@H](NC(=O)[C@@H]1CCCN1)C(=O)N1CCC[C@H]1C(=O)N1CCC[C@H]1C(=O)N[C@@H](CCC(N)=O)C(=O)N[C@@H](COP(=O)(O)O)C(=O)N1CCC[C@H]1C(=O)O [Peptide 12, PAPPQS(p)P] (H-PAPPQ[pS]P-OH)
Inhibitor functionality [1]: * (weak inhibition activity (IC50 > 800 μM))
